Data reported in PMC3332334 (Biochemistry, 2012).

Molecular target: PA1221 (Pseudomonas aeruginosa, UniProt Q9I4B7)
Experiment: […]-PPi exchange assay
Type: biochemical
Settings: 2 mM ATP, 0.2 mM PPi, 1 mM MgCl2, pH 7.5, 37 °C

Row | SMILES | 32P-PPi exchange assay (5 mM Ile) | 32P-PPi exchange assay (5 mM valine)
1 | CC[C@H](C)[C@H](N)C(=O)O [I, Ile] | Ile, Leu, and Ala utilized as substrates at a lower rate | –
2 | CC(C)[C@H](N)C(=O)O [V, valine] | – | Valine resulted in the highest activity
